Paper PMC5218480 (PLoS ONE, 2017)

Test system: MV-4-11 cells
Experiment: Gene expression microarray analysis (Affymetrix PrimeView) and GSEA
Format: cell-based, human
Design: RFU PODN (11730768_x_at) / Fold change /veh PODN (11730768_x_at) / RFU LINC00158 (11744669_a_at) / Fold change /veh LINC00158 (11744669_a_at) / RFU DUSP10 (11751237_a_at) / Fold change /veh DUSP10 (11751237_a_at) / RFU ID3 (11757404_x_at) / Fold change /veh ID3 (11757404_x_at) / RFU PLEKHG5 (11737974_s_at) / Fold change /veh PLEKHG5 (11737974_s_at) / RFU LRRC4B (11730491_at) / Fold change /veh LRRC4B (11730491_at) / RFU GIMAP4 (11747438_a_at) / Fold change /veh GIMAP4 (11747438_a_at) / RFU KRT8 (11758183_x_at) / Fold change /veh KRT8 (11758183_x_at) / RFU CNN1 (11734310_a_at) / Fold change /veh CNN1 (11734310_a_at) / RFU VPS37D (11726825_at) / Fold change /veh VPS37D (11726825_at) / RFU C10orf10 (11716522_x_at) / Fold change /veh C10orf10 (11716522_x_at) / RFU KIR2DL2 /// KIR2DL4 /// KIR2DL5A /// KIR2DL5B /// KIR2DS1 /// KIR2DS2 /// KIR2DS3 /// KIR2DS4 /// KIR3DL3 /// KIR3DL3 /// KIR3DS1 (11738374_at) / Fold change /veh KIR2DL2 /// KIR2DL4 /// KIR2DL5A /// KIR2DL5B /// KIR2DS1 /// KIR2DS2 /// KIR2DS3 /// KIR2DS4 /// KIR3DL3 /// KIR3DL3 /// KIR3DS1 (11738374_at) / RFU C1QL1 (11718748_at) / Fold change /veh C1QL1 (11718748_at) / RFU TMPRSS4 (11747572_a_at) / Fold change /veh TMPRSS4 (11747572_a_at) / RFU HAMP (11756126_x_at) / Fold change /veh HAMP (11756126_x_at) / RFU RNFT2 (11725882_a_at) / Fold change /veh RNFT2 (11725882_a_at) / RFU NR4A2 (11747474_a_at) / Fold change /veh NR4A2 (11747474_a_at) / RFU ABCC12 (11746883_a_at) / Fold change /veh ABCC12 (11746883_a_at) / RFU TMEM136 (11760407_x_at) / Fold change /veh TMEM136 (11760407_x_at) / RFU CLDN22 /// WWC2 (11732394_at) / Fold change /veh CLDN22 /// WWC2 (11732394_at) / RFU HLA-DPB1 (11760878_x_at) / Fold change /veh HLA-DPB1 (11760878_x_at) / RFU SPINT1 (11716480_a_at) / Fold change /veh SPINT1 (11716480_a_at) / RFU GAP43 (11754022_s_at) / Fold change /veh GAP43 (11754022_s_at) / RFU A4GNT (11735810_at) / Fold change /veh A4GNT (11735810_at) / RFU PRB3 (11715151_x_at) / Fold change /veh PRB3 (11715151_x_at) / RFU TUBB4B (11761932_at) / Fold change /veh TUBB4B (11761932_at) / RFU CAPN14 (11732068_a_at) / Fold change /veh CAPN14 (11732068_a_at) / RFU TMCC2 (11721928_a_at) / Fold change /veh TMCC2 (11721928_a_at) / RFU IRGQ (11745062_a_at) / Fold change /veh IRGQ (11745062_a_at) / RFU FAM174B (11720279_a_at) / Fold change /veh FAM174B (11720279_a_at) / RFU TMPRSS4 (11748680_a_at) / Fold change /veh TMPRSS4 (11748680_a_at) / RFU FAM212B (11763350_a_at) / Fold change /veh FAM212B (11763350_a_at) / RFU PLEKHG5 (11743358_a_at) / Fold change /veh PLEKHG5 (11743358_a_at) / RFU ZSCAN30 (11745921_a_at) / Fold change /veh ZSCAN30 (11745921_a_at) / RFU CMKLR1 (11741424_a_at) / Fold change /veh CMKLR1 (11741424_a_at) / RFU LOC101060620 /// MAPK8IP1 (11723275_at) / Fold change /veh LOC101060620 /// MAPK8IP1 (11723275_at) / RFU SPTSSB (11747773_x_at) / Fold change /veh SPTSSB (11747773_x_at) / RFU PRSS12 (11739890_at) / Fold change /veh PRSS12 (11739890_at) / RFU BIN1 (11741810_x_at) / Fold change /veh BIN1 (11741810_x_at) / RFU WNT11 (11732464_a_at) / Fold change /veh WNT11 (11732464_a_at) / RFU C10orf10 (11716521_a_at) / Fold change /veh C10orf10 (11716521_a_at) / RFU C5orf56 (11738089_at) / Fold change /veh C5orf56 (11738089_at) / RFU CYB561 (11721691_x_at) / Fold change /veh CYB561 (11721691_x_at) / RFU ANKRD19P (11752326_a_at) / Fold change /veh ANKRD19P (11752326_a_at) / RFU OR2T12 /// OR2T33 /// OR2T8 (11738714_s_at) / Fold change /veh OR2T12 /// OR2T33 /// OR2T8 (11738714_s_at) / RFU VCAN (11748164_a_at) / Fold change /veh VCAN (11748164_a_at) / RFU JSRP1 (11732532_at) / Fold change /veh JSRP1 (11732532_at) / RFU KRTAP10-11 (11738290_x_at) / Fold change /veh KRTAP10-11 (11738290_x_at) / RFU MYO3A (11730013_a_at) / Fold change /veh MYO3A (11730013_a_at) / RFU EBF3 (11725865_a_at) / Fold change /veh EBF3 (11725865_a_at) / RFU CAMK2N1 (11719241_x_at) / Fold change /veh CAMK2N1 (11719241_x_at) / RFU C5orf56 (11738088_a_at) / Fold change /veh C5orf56 (11738088_a_at) / RFU OLFML3 (11715873_a_at) / Fold change /veh OLFML3 (11715873_a_at) / RFU LOC100653217 /// NTM (11731650_a_at) / Fold change /veh LOC100653217 /// NTM (11731650_a_at) / RFU MAPK11 (11762145_a_at) / Fold change /veh MAPK11 (11762145_a_at) / RFU FIZ1 (11724087_x_at) / Fold change /veh FIZ1 (11724087_x_at) / RFU OASL (11726364_x_at) / Fold change /veh OASL (11726364_x_at) / RFU SOX15 (11748057_x_at) / Fold change /veh SOX15 (11748057_x_at) / RFU CD79A (11719716_a_at) / Fold change /veh CD79A (11719716_a_at) / RFU HIST1H1D (11736915_at) / Fold change /veh HIST1H1D (11736915_at) / RFU CASKIN2 (11723855_a_at) / Fold change /veh CASKIN2 (11723855_a_at) / RFU LOC730098 (11760151_x_at) / Fold change /veh LOC730098 (11760151_x_at) / RFU OR4N2 (11742367_at) / Fold change /veh OR4N2 (11742367_at) / RFU PRRT2 (11749266_a_at) / Fold change /veh PRRT2 (11749266_a_at) / RFU SNX32 (11753110_a_at) / Fold change /veh SNX32 (11753110_a_at) / RFU CDHR5 (11726645_a_at) / Fold change /veh CDHR5 (11726645_a_at) / RFU RCAN1 (11760418_a_at) / Fold change /veh RCAN1 (11760418_a_at) / RFU FAM167A (11723789_a_at) / Fold change /veh FAM167A (11723789_a_at) / RFU FAM26E (11764081_at) / Fold change /veh FAM26E (11764081_at) / RFU ISYNA1 (11749810_s_at) / Fold change /veh ISYNA1 (11749810_s_at) / RFU ACY1 (11761880_at) / Fold change /veh ACY1 (11761880_at) / RFU 11764098_at / Fold change /veh 11764098_at / RFU SAMD14 (11745864_x_at) / Fold change /veh SAMD14 (11745864_x_at) / RFU NPB (11741838_a_at) / Fold change /veh NPB (11741838_a_at) / RFU TMPRSS6 (11731388_a_at) / Fold change /veh TMPRSS6 (11731388_a_at) / RFU KRTAP10-2 (11738614_at) / Fold change /veh KRTAP10-2 (11738614_at) / RFU ARHGAP8 /// PRR5-ARHGAP8 (11727945_x_at) / Fold change /veh ARHGAP8 /// PRR5-ARHGAP8 (11727945_x_at) / RFU KRTAP5-7 /// NADSYN1 (11734609_at) / Fold change /veh KRTAP5-7 /// NADSYN1 (11734609_at) / RFU RASL12 (11751679_a_at) / Fold change /veh RASL12 (11751679_a_at) / RFU CDKN2B (11736163_a_at) / Fold change /veh CDKN2B (11736163_a_at) / RFU PRF1 (11729649_at) / Fold change /veh PRF1 (11729649_at) / RFU, ZNF638 /// ZNF638-IT1 / Fold change vs veh, ZNF638 /// ZNF638-IT1 / RFU, PANK3 / Fold change vs veh, PANK3 / RFU, SH3YL1 / Fold change vs veh, SH3YL1 / RFU, ZEB2 / Fold change vs veh, ZEB2 / RFU, NRIP1 / Fold change vs veh, NRIP1 / RFU, PTTG1IP / Fold change vs veh, PTTG1IP / RFU, CAPN2 / Fold change vs veh, CAPN2 / RFU, MED14 / Fold change vs veh, MED14 / RFU, SNORA58 / Fold change vs veh, SNORA58 / RFU, C1orf63 / Fold change vs veh, C1orf63 / RFU, LRRFIP1 / Fold change vs veh, LRRFIP1 / RFU, NDUFAF7 / Fold change vs veh, NDUFAF7 / RFU, SLC12A2 / Fold change vs veh, SLC12A2 / RFU, IBTK / Fold change vs veh, IBTK / RFU, ESF1 / Fold change vs veh, ESF1 / Fold change vs veh, TMEM50B / RFU, TAOK1 / Fold change vs veh, TAOK1 / RFU, ACBD3 / Fold change vs veh, ACBD3 / RFU, TMA16 / Fold change vs veh, TMA16 / RFU, RWDD3 / Fold change vs veh, RWDD3 / RFU, BCAT1 / Fold change vs veh, BCAT1 / RFU, EDEM3 / Fold change vs veh, EDEM3 / RFU, TMEM33 / Fold change vs veh, TMEM33 / RFU, WDR75 / Fold change vs veh, WDR75 / RFU, AHCTF1 / Fold change vs veh, AHCTF1 / RFU, TFRC / Fold change vs veh, TFRC / RFU, ZDHHC17 / Fold change vs veh, ZDHHC17 / RFU, NOM1 / Fold change vs veh, NOM1 / RFU, ARL8B / Fold change vs veh, ARL8B / RFU, ZBTB11 / Fold change vs veh, ZBTB11 / RFU, TAMM41 / Fold change vs veh, TAMM41 / RFU, KIAA1704 /// LOC100996395 / Fold change vs veh, KIAA1704 /// LOC100996395 / RFU, ING1 / Fold change vs veh, ING1 / RFU, TRMT61B / Fold change vs veh, TRMT61B / RFU, FUBP3 / Fold change vs veh, FUBP3 / RFU, TP53 / Fold change vs veh, TP53 / RFU, TNKS2 / Fold change vs veh, TNKS2 / RFU, ZFP14 / Fold change vs veh, ZFP14 / RFU, ACTR2 / Fold change vs veh, ACTR2 / RFU, PPP3R1 / Fold change vs veh, PPP3R1 / RFU, PIK3R1 / Fold change vs veh, PIK3R1 / RFU, HNRNPA1 / Fold change vs veh, HNRNPA1 / RFU, RNF170 / Fold change vs veh, RNF170 / RFU, ZNF28 / Fold change vs veh, ZNF28 / RFU, RNGTT / Fold change vs veh, RNGTT / RFU, OGT / Fold change vs veh, OGT / RFU, BRD1 / Fold change vs veh, BRD1 / RFU, MARS / Fold change vs veh, MARS / RFU, ZNF655 / Fold change vs veh, ZNF655 / RFU, FAHD1 / Fold change vs veh, FAHD1 / RFU, BDP1 / Fold change vs veh, BDP1 / RFU, LRRCC1 / Fold change vs veh, LRRCC1 / RFU, ARID1A / Fold change vs veh, ARID1A / RFU, ZNF146 / Fold change vs veh, ZNF146 / RFU, ZNF330 / Fold change vs veh, ZNF330 / RFU, GPN3 / Fold change vs veh, GPN3 / RFU, C9orf123 / Fold change vs veh, C9orf123 / RFU, N4BP2L2 / Fold change vs veh, N4BP2L2 / RFU, ARFIP1 / Fold change vs veh, ARFIP1 / RFU, FAM179B / Fold change vs veh, FAM179B / RFU, BCL10 / Fold change vs veh, BCL10 / RFU, UHRF1BP1L / Fold change vs veh, UHRF1BP1L / RFU, BET1 / Fold change vs veh, BET1 / RFU, CNOT2 / Fold change vs veh, CNOT2 / RFU, ZNF268 / Fold change vs veh, ZNF268 / Fold change vs veh, ZNF507 / RFU, DGCR2 / Fold change vs veh, DGCR2 / RFU, WDSUB1 / Fold change vs veh, WDSUB1 / Fold change vs veh, HSP90B1 /// MIR3652 / RFU, ADSS / Fold change vs veh, ADSS / RFU, GK / Fold change vs veh, GK / RFU, ZNF148 / Fold change vs veh, ZNF148 / RFU, TAF9 / Fold change vs veh, TAF9 / RFU, SLC1A5 / Fold change vs veh, SLC1A5 / RFU, SLMO2 / Fold change vs veh, SLMO2 / RFU, ABCC4 / Fold change vs veh, ABCC4 / RFU, LOC101060439 /// RAP1B / Fold change vs veh, LOC101060439 /// RAP1B / RFU, RFX7 / Fold change vs veh, RFX7 / RFU, GTPBP10 / Fold change vs veh, GTPBP10 / RFU, CNEP1R1 / Fold change vs veh, CNEP1R1 / RFU, BIVM-ERCC5 /// ERCC5 / Fold change vs veh, BIVM-ERCC5 /// ERCC5 / RFU, ILF3 / Fold change vs veh, ILF3 / RFU 11762660_at / Fold change /veh 11762660_at / RFU VCAN (11757783_s_at) / Fold change /veh VCAN (11757783_s_at) / RFU DDX43 (11728927_at) / Fold change /veh DDX43 (11728927_at) / RFU KRT8 (11758188_x_at) / Fold change /veh KRT8 (11758188_x_at) / RFU NKD1 (11759106_at) / Fold change /veh NKD1 (11759106_at) / RFU SRD5A1 (11742802_a_at) / Fold change /veh SRD5A1 (11742802_a_at) / RFU TPSAB1 /// TPSB2 (11721975_s_at) / Fold change /veh TPSAB1 /// TPSB2 (11721975_s_at) / RFU GSTM3 (11746129_a_at) / Fold change /veh GSTM3 (11746129_a_at) / RFU IL23R (11737362_x_at) / Fold change /veh IL23R (11737362_x_at) / RFU TMEM51 (11727254_a_at) / Fold change /veh TMEM51 (11727254_a_at) / RFU PIWIL2 (11732686_x_at) / Fold change /veh PIWIL2 (11732686_x_at) / RFU ORM1 (11744905_x_at) / Fold change /veh ORM1 (11744905_x_at) / RFU CCDC152 (11743942_at) / Fold change /veh CCDC152 (11743942_at) / RFU ECM1 (11717891_a_at) / Fold change /veh ECM1 (11717891_a_at) / RFU IL23R (11748794_a_at) / Fold change /veh IL23R (11748794_a_at) / RFU TNFAIP8L3 (11732012_x_at) / Fold change /veh TNFAIP8L3 (11732012_x_at) / RFU MBOAT4 (11741988_at) / Fold change /veh MBOAT4 (11741988_at) / RFU 11764193_at / Fold change /veh 11764193_at / RFU TMEM53 (11763286_at) / Fold change /veh TMEM53 (11763286_at) / RFU MAGEB2 (11727129_at) / Fold change /veh MAGEB2 (11727129_at) / RFU TMEM200A (11744735_a_at) / Fold change /veh TMEM200A (11744735_a_at) / RFU CCDC152 (11751479_a_at) / Fold change /veh CCDC152 (11751479_a_at) / RFU FAM211A (11726209_a_at) / Fold change /veh FAM211A (11726209_a_at) / RFU RGS16 (11746705_a_at) / Fold change /veh RGS16 (11746705_a_at) / RFU VCAN (11755009_s_at) / Fold change /veh VCAN (11755009_s_at) / RFU RHOB (11743442_s_at) / Fold change /veh RHOB (11743442_s_at) / RFU RGS16 (11720943_a_at) / Fold change /veh RGS16 (11720943_a_at) / RFU RGS16 (11720944_at) / Fold change /veh RGS16 (11720944_at) / RFU, VPS4B / Fold change vs veh, VPS4B / RFU, CREB1 / Fold change vs veh, CREB1 / RFU, DNAJC13 / Fold change vs veh, DNAJC13 / RFU, GNAQ / Fold change vs veh, GNAQ / RFU, CDK5R1 / Fold change vs veh, CDK5R1 / RFU, ZRANB3 / Fold change vs veh, ZRANB3 / RFU, CUL4A / Fold change vs veh, CUL4A / RFU, CCNY / Fold change vs veh, CCNY / RFU, UFL1 / Fold change vs veh, UFL1 / RFU, COG3 / Fold change vs veh, COG3 / RFU, DIAPH2 / Fold change vs veh, DIAPH2 / RFU, SKA2 / Fold change vs veh, SKA2 / RFU, AFF3 / Fold change vs veh, AFF3 / RFU, LMF1 / Fold change vs veh, LMF1 / RFU, IPO11 / Fold change vs veh, IPO11 / RFU, DFFB / Fold change vs veh, DFFB / RFU, FOXP1 / Fold change vs veh, FOXP1 / RFU, CARD8 / Fold change vs veh, CARD8 / RFU, STRN3 / Fold change vs veh, STRN3 / RFU, ADK / Fold change vs veh, ADK / RFU, RASSF2 / Fold change vs veh, RASSF2 / RFU, WIPF1 / Fold change vs veh, WIPF1 / RFU, LARP1B / Fold change vs veh, LARP1B / RFU, RASA1 / Fold change vs veh, RASA1 / RFU, RB1 / Fold change vs veh, RB1 / RFU, PPFIA1 / Fold change vs veh, PPFIA1 / RFU, MAT2A / Fold change vs veh, MAT2A / RFU, CCT5 / Fold change vs veh, CCT5 / RFU, WDR92 / Fold change vs veh, WDR92 / RFU, CUX1 / Fold change vs veh, CUX1 / RFU, TTC7A / Fold change vs veh, TTC7A / RFU, TMEM135 / Fold change vs veh, TMEM135 / RFU, DEPTOR / Fold change vs veh, DEPTOR / RFU, CPM / Fold change vs veh, CPM / RFU, DNAJB6 / Fold change vs veh, DNAJB6 / RFU, CACNA2D3 / Fold change vs veh, CACNA2D3 / RFU, DTX4 / Fold change vs veh, DTX4 / RFU, TFCP2 / Fold change vs veh, TFCP2 / RFU, GMCL1 /// GMCL1P1 / Fold change vs veh, GMCL1 /// GMCL1P1 / RFU, AEBP2 / Fold change vs veh, AEBP2 / RFU, SNHG1 /// SNORD22 /// SNORD25 /// SNORD26 /// SNORD27 /// SNORD28 /// SNORD29 /// SNORD31 / Fold change vs veh, SNHG1 /// SNORD22 /// SNORD25 /// SNORD26 /// SNORD27 /// SNORD28 /// SNORD29 /// SNORD31 / Fold change (Aza/veh), C12orf56 (ProbeSet 11735607_a_at) / Fold change (ACY-1035/veh), C12orf56 (ProbeSet 11735607_a_at) / Fold change (Aza/veh), FGFR1OP (ProbeSet 11751329_s_at) / Fold change (ACY-1035/veh), FGFR1OP (ProbeSet 11751329_s_at) / Fold change (Aza/veh), VPS36 (ProbeSet 11739960_a_at) / Fold change (ACY-1035/veh), VPS36 (ProbeSet 11739960_a_at) / RFU SYPL1 (11715823_x_at) / Fold change /veh SYPL1 (11715823_x_at) / RFU IGFBP7 (11715501_s_at) / Fold change /veh IGFBP7 (11715501_s_at) / RFU REEP3 (11722064_at) / Fold change /veh REEP3 (11722064_at) / RFU IGLL1 (11728026_x_at) / Fold change /veh IGLL1 (11728026_x_at): dose or concentration left out as unconfirmed
Details: MV-4-11 cells, 48 hours

Structure (SMILES): Nc1ccc(-c2cccs2)cc1NC(=O)c1ccc2c(c1)cc(C1CC1)n2CCN1CCOCC1 [ACY-1035]
- RFU TUBB4B (11761932_at): 19.33 RFU
